{"source": "paper PMC6135396", "about": "“Repurposing antimalarial aminoquinolines and related compounds for treatment of retinal neovascularization” (PLoS ONE, 2018)", "key": {"APJ": {"biological_target": "T1, APJ (Homo sapiens, UniProt P35414)", "T1 sequence (P35414 1-380)": "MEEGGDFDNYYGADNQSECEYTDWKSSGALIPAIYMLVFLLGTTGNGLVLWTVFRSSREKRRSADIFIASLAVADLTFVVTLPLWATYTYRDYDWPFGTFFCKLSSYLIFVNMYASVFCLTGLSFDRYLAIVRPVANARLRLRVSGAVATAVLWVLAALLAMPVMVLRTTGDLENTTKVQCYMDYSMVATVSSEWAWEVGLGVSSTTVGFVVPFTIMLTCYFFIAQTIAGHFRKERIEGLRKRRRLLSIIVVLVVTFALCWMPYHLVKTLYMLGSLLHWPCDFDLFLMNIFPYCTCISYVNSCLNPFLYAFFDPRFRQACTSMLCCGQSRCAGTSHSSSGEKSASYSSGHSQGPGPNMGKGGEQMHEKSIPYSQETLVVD", "test": "APJ β-arrestin recruitment assay (PathHunter, CHO-K1-APJ)", "type": "cell-based", "design": "β-galactosidase enzyme fragment (enzyme fragment complementation construct); host or cells: CHO-K1 (CHO-K1-APJ, PathHunter)", "procedure": "PathHunter™ GPCR Arrestin and cAMP Hunter™ cell lines (DiscoveRx Corp., Fremont, CA) were used to assay G-protein-dependent signaling and β-arrestin recruitment to APJ. CHO-K1 cells stably expressing APJ (CHO-K1-APJ) or AT1 (CHO-K1-AT1) with β-arrestin/β-galactosidase enzyme fragment complementation constructs were maintained in HAM's F-12 medium (Hyclone, Logan, UT) supplemented with 10% FBS, 1X Penicillin-Streptomycin-Glutamine (Invitrogen; Carlsbad, CA), 300 μg/ml hygromycin (EMD Biosciences, San Diego, CA), and 800 μg/ml Geneticin (Cellgro, Manassas, VA). Primary Human Retinal Microvascular Endothelial Cells (HRECs) were purchased from Cell Systems (Kirkland, WA) and maintained in Complete Classic Medium with CultureBoost-R™ (Cell Systems). Parent CHO-K1 cells were obtained from ATCC and maintained in HAM’s F-12 medium supplemented with 10% FBS, and1X Penicillin-Streptomycin-Glutamine (Invitrogen; Carlsbad, CA). All cells were incubated at 37°C (5% CO2, 95% relative humidity) and maintained at less than 70% to 80% confluence (approximately 75,000 cells/cm^2). Cell heterologously expressing APJ or AT1 were not used after 10 passages. HRECs were not used in any experiments after five passages.\nCHO-K1 cells engineered to over-express APJ or AT1, and β-arrestin were removed from flasks using TrypLE Select (1X), no phenol red (Life Technologies, Grand Island, NY), centrifuged, and resuspended in CP2 Reagent (DiscoveRx, Fremont, CA). Cells were counted using a Countess Automated Cell Counter (Invitrogen, Carlsbad, CA) and 5,000 cells/well were plated in a 384-well tissue culture treated microplate (Corning, Corning, NY). All plates were incubated overnight at 37°C, 5% CO2 in a final volume of 25 μl/well. Following incubation, 5 μl of peptides (10-point concentrations) and controls prepared in ligand buffer (1X HBSS, 10 mM HEPES, 0.1% BSA) were added to cells and incubated at 37°C for 1.5 h. Using a Multidrop Combi Reagent Dispenser (Thermo Scientific), 12 μl of Detection Reagent (DiscoveRx) comprised of substrate and co-factors was added to all wells and incubated at room temperature in the dark for 1 h. Chemiluminescent signal was detected on an EnVision Multi-label plate reader (Perkin Elmer) using a counting time of 1 s/well. The robustness of data from each screening plate and run was monitored by Z’ and Signal Window calculation."}, "[1]": {"test": "Hepatic microsome stability, human", "type": "in vitro ADME", "settings": "liver microsomes, pH 7.4, terminal half-life of a two-phase exponential decay, read-out: Hepatic microsome stability T1/2", "procedure": "Hepatic microsomes stability assays were performed as reported before. […] After preincubation at 37°C for 10 min, enzyme reactions were initiated by adding 120 μL of NADPH-generating system (2 mM NADP^+, 10 mM glucose-6-phosphate, 0.4 U/ml glucose-6-phosphate dehydrogenase, and 5 mM MgCl2) in the presence of 100 mM potassium phosphate buffer (pH 7.4). The final concentration of each model compound used was 1 μM. The microsomal concentrations used were 1.0 mg/mL. Compounds were incubated in microsomes for 0, 5, 15, 30 and 60 min. The reactions were stopped by the addition of ice cold ACN and the reaction mixtures were centrifuged at 10,000g for 10 min before the supernatant was removed for analysis.\nExcept for the primary assay in the HTS campaign, all experiments were repeated at least three times. Results are expressed as mean ± SEM. The Mann-Whitney test was used to determine statistical significance of the densitometry data of Western blot analysis. Unpaired two-tailed Student’s t-test was performed for the significance of the results of ELISA and in vitro tubule formation assay. ANOVA was used to determine the significance in vivo CNV models using the Tukey post-hoc test for multiple comparisons. […] T1/2 was calculated using the best fit curve resulting from non-linear (human) or linear (mouse and rat) regression analyses using Prism 7."}, "[2]": {"test": "Tissue distribution in the mouse eye after intravitreal injection", "type": "in vivo", "settings": "7 d after IVT administration", "procedure": "Mice were assigned to groups (n = 6/group) that received either 50 μg compound, or vehicle via intravitreal injection (1 μl volume). One day after injection, ½ of the mice (n = 3 / group) mice were euthanized. The eyes were enucleated and the vitreous humor, retina, and RPE/Choroid/sclera were isolated and snap frozen in liquid N2. The remaining mice in each treatment group (n = 3 / group) were euthanized and the same tissues collected. The quantity of compound in the tissues (n = 6 eyes / treatment group) was measured using LC-MS/MS."}, "[3]": {"system": "human retinal microvascular endothelial cells (HRECs)", "test": "In vitro HREC tube formation assay", "type": "cell-based", "procedure": "In vitro tube formation assays were carried out as previously described. Briefly, near confluent microvascular endothelial cells were pretreated with VEGF (100 ng/ml) for 2 h and then treated for 24 h with test compounds at serial concentrations, as indicated. Cells without VEGF treatment or with VEGF only were used as control. The cells were then detached and plated sparsely (2.5 ×10^4/well) on 24-well plates coated with 12.5% (v/v) Matrigel (BD, Franklin Lakes, NJ) and left overnight. The medium was then aspirated and 250 μl/well of 12.5% Matrigel was overlaid on the cells for 2 h to allow the polymerization of Matrigel, followed by addition of 500 μl/well of basal medium MCD131 with 10% fetal calf serum (FCS) for 24 h. The following day, the culture plates were observed under a phase contrast microscope and photographed at random in five fields (×10). The tubule length (mm/mm^2) per microscope field was quantified."}}}
{"smiles": "CCN(CC)Cc1cc(Nc2ccnc3cc(Cl)ccc23)ccc1O", "note": "[AQ, amodiaquine]", "values": [{"measurement": "Antagonism of Ap13-mediated recruitment of β-arrestin", "setting": "APJ", "result": "neither AQ nor 1, 3, 4, 5, or 6 antagonized"}, {"measurement": "IC50", "setting": "APJ; secondary assay, Ap13-mediated β-arrestin recruitment", "result": "> 99", "unit": "µM"}, {"measurement": "half-life at 1 μM", "setting": "[1]", "result": 17, "unit": "min"}, {"measurement": "AQ level in plasma", "setting": "[2]", "result": "No detectable levels"}, {"measurement": "Effect on Ap13-dependent increase in HREC tube formation", "setting": "[3]; Ap13-induced, concentration-dependent", "result": "blocked Ap13-dependent increases in tube formation"}, {"measurement": "Effect on VEGF-induced HREC tube formation", "setting": "[3]; VEGF 100 ng/mL, absence of exogenous Ap13", "result": "blocked VEGF-induced tube formation"}]}
